Experimental data published in patent US20240124545A1, “COMPOSITIONS AND METHODS RELATING TO THE TREATMENT OF DISEASES” (ILC THERAPEUTICS LIMITED, priority 2021, published 2024).
Values joined by “and” are separate entries in the source; they are usually repeats but may differ in a detail not shown here. Equal entries are not always repeated.

Key:
HEp-2 cells = test: XTT viability (cytotoxicity) assay, uninfected HEp-2 cells; settings: 1 μM; 72 hours
HeLa-CD4-βgal cells [1] = settings: human
HeLa-CD4-βgal cells [2] = test: XTT viability (cytotoxicity) assay, uninfected HeLa-CD4-βgal cells (Experiment 5); settings: 10 μM
HeLa-CD4-βgal cells [3] = test: XTT viability (cytotoxicity) assay, uninfected HeLa-CD4-βgal cells (Experiment 4); settings: 1 μM; 48 hours

CC[C@H]1CN2CCc3cc(OC)c(OC)cc3[C@@H]2C[C@@H]1C[C@H]1NCCc2cc(OC)c(OC)cc21 [Emetine]
HEp-2 viability in the XTT assay (percentage values), controls (HEp-2 cells): 6.8 ± 1.1 % vehicle
inhibition by viability control in XTT cytotoxicity assays (HeLa-CD4-βgal cells [1]): greater than 85%
inhibition of cell viability by cytotoxic compound control (HeLa-CD4-βgal cells [1]): greater than 90%
Viability of Uninfected HeLa-CD4-β gal Cells (% vehicle alone), controls (HeLa-CD4-βgal cells [2]; 48 hours): 5.6 ± 0.7 % vehicle alone
Viability (A490), controls, HeLa-CD4-βgal cells (HeLa-CD4-βgal cells [2]; raw absorbance 490 nm): 0.213 and 0.203
Viability of HeLa-CD4-βgal cells in the XTT assay (percentage values), controls (HeLa-CD4-βgal cells [3]): 10.0 ± 1.7%
